Results taken from patent publication US20250049914A1, “STEROID ACID-PEPTIDE BASED INTRACELLULAR CARGO DELIVERY” (DEFENCE THERAPEUTICS INC., priority 2021, published 2025).
Where no end group is shown, it is not given here.

Tests used:
[1] = test system: mesenchymal stromal cells (MSCs); test: OVA-AF647 intracellular delivery, flow cytometry; format: cell-based; settings: OVA-AF647 mixed with 45 μM conjugate, nine hours, vs cargo alone
Method: Mesenchymal stromal cells (MSCs) were incubated with either unconjugated fluorescently labeled OVA-AF647 alone or mixed with 45 μM of CA-HnRPA1 NLS steroid acid-peptide for nine hours and then intracellular OVA-AF647 delivery was assessed by flow cytometry as described in Example 1. […] The experiment was repeated with DQ™ OVA as cargo to evaluate the intracellular fate of the cargo delivered upon coincubation with CA-HnRPA1 NLS, as described in Example 4.

[2] = test system: cross-presenting mesenchymal stromal cell line (cpMSC); test: Antigen-presentation assay using the B3Z reporter system, cross-presenting MSC line; format: cell-based; settings: cpMSCs, OVA admixed, vs OVA alone or OVA mixed with CA-SV40NLS
Method: Various bile acid-NLS conjugates were screened using the B3Z reporter system. The B3Z cell line is a T-cell hybridoma specific for the H2-K^b-[…] complex. Once activated via its TCR, the LacZ reporter gene (under the NFAT promoter control) is expressed. Briefly, 1.5×10^5 BMDCs or 2.5×10^5 MSCs were co-cultured with 5×10^4 B3Z cells treated with the mixing conditions of ovalbumin (OVA) and bile acid-NLS conjugates for overnight at 37° C. with 5% CO2. The following day, all cells were washed twice with PBS (pH 7.4), and the cell pellets were lysed by adding 100 μL of a lysis buffer containing 0.15 mM chlorophenol red-beta-D-galactopyranoside (CPRG) substrate (Calbiochem, La Jolla, CA), 0.125% NP40 (EMD Sciences, La Jolla, CA), 9 mM MgCl2 (Aldrich, USA) and 100 mM 2-mercaptoethanol in PBS. After a 5- or 24-h incubation at 37° C., absorbance was taken at 570 nm with 636 nm as the reference wavelength. For these experiments, OVA was re-suspended in PBS (pH 7.3) at 5-10 mg/mL. The different bile acid-NLS conjugates were re-suspended in H2O at 10 mg/mL. Bile acid-NLS conjugate: antigen mixtures were prepared at different molar ratios according to Table 1.
Further variants of CA-SV40NLS were synthesized in which the SV40NLS peptide was replaced with peptides comprising other NLS's (Table 5) and the antigen presentation activities of the CA-NLS peptide conjugates were evaluated using the B3Z reporter system as described in Example 1. The following conjugate: antigen molar ratios were tested for each conjugate: 2:1, 4:1, 8:1, 12:1 and 22:1. The results in FIGS. 12-15 compare the antigen presentation activities of different conjugates at the conjugate: antigen ratio that yielded the highest B3Z response (OD570) for that conjugate.

WT MSCs [3] = test: OVA-AF647 uptake by WT MSCs; format: cell-based, mouse; settings: OVA-AF647 admixed with CA-hnRNPA1
Method: (§1) To evaluate OVA uptake, MSCs were first treated with […] of OVA-AF647 admixed with CA-hnRNPA1 for 1 hour at 37° C. then assessed for their fluorescence intensity by flow-cytometry. To evaluate antigen processing, MSCs were incubated with 10 µg/mL OVA-DQ® admixed with A1 at 37° C. Half an hour later, cells were washed, and regular media added. At the end of the indicated incubation time, cells were collected and washed with cold PBS containing 2% FBS. Fluorescence was monitored by flow cytometry.

WT MSCs [4] = test: OVA-DQ processing by WT MSCs; format: cell-based, mouse; settings: OVA-DQ admixed with CA-hnRNPA1
Method: as §1

WT MSCs [5] = test: Flow cytometry of H2-Kb and I-Ab expression; format: cell-based, mouse; settings: WT MSCs treated with CA-hnRNPA1
From the text: FIG. 18A and FIG. 18B show the results of antigen cross-presentation assay conducted using CA-hnRNPA1 admixed with OVA compared to controls and CA-SV40. […] For FIGS. 18B, 18E and 18F, n=6/group with *P<0.05, **P<0.01 and ***P<0.001.
FIG. 18G and FIG. 18H show the increase in H2-Kb and I-Ab expression in WT MSCs treated with CA-hnRNPA1, respectively.

MSCs [6] = test: Endosomal escape, apoptosis assay with recombinant cytochrome C; format: cell-based, mouse; settings: CA-hnRNPA1 50 μM, 6 h
Method: Endosomal leakage was assessed using an apoptosis assay. Briefly, 10′ MSCs were first supplemented with 10 mg/mL of exogenous rCyt-C for 6 h at 37° C. in the presence or absence of CA-hnRNPA1 (50 μM). Once the incubation period completed, the cells were collected using Accutase®, washed with ice cold PBS, then stained for Annexin-V according to manufacturer's instructions prior to analysis using BD FACS Diva™ on CANTOII™.

MSCs [7] = test: Cytokine and chemokine analysis (Luminex); format: cell-based, mouse; settings: 50 μM CA-hnRNPA1, 6 h
Method: For cytokine and chemokine profiling, 15 cm cell culture dishes containing 80-90% confluent MSCs were grown in serum-free AMEM for 24 h at 37° C. and 5% CO2. MSCs were then treated with 50 μM of CA-hnRNPA1 in serum-free AMEM for 6 h. The supernatant was collected and fresh serum-free AMEM was replenished, without CA-hnRNPA1. After 24 h of the initial CA-hnRNPA1 treatment, the supernatant was collected and gathered with the previous one collected. Collected supernatants were then concentrated using the Amicon Ultra-4™ centrifugal filters (3000 NMWL) for 1 h at 4° C. Collected concentrates (80×) were then frozen at −80° C. until shipped to EveTechnologies™ (Calgary, AB, Canada) for cytokine/chemokine assessment by […].

human WT MSCs = test: OVA uptake by human MSCs, flow cytometry; format: cell-based; settings: CA-hnRNPA1-treated human MSCs

CA-hnRNPA1: cholic acid conjugated to hnRNPA1 M9 NLS peptide CSNFGPMKGGNFGGRSSGPY (SEQ ID NO: 4) (not fully specified (N-terminus); also: cholic acid conjugate, site not given here)
intracellular OVA-AF647 cargo delivery ([1]; listed as CA-HnRPA1): increased intracellular cargo delivery | intracellular OVA-AF647 cargo delivery ([1]; listed as CA-hnRPA1 M9 NLS): increased intracellular delivery | antigen-presentation activity of cholic acid-NLS peptide conjugates (B3Z response) [2]: amongst the best enhancers of cross presentation | antigen-presentation activity of cholic acid-NLS peptide conjugates (B3Z response) ([2]; listed as CA-hnRNPA1 M9 NLS): highly enhance cross presentation | OVA uptake by WT MSCs (WT MSCs [3]): increase in OVA uptake | OVA processing by WT MSCs (WT MSCs [4]): increase in OVA processing | I-Ab expression (WT MSCs [5]): increase | endosomal membrane damage (co-treatment with recombinant cytochrome C) (MSCs [6]): endosomal membrane damaging properties | cytokine levels (Luminex) (MSCs [7]): increases in various cytokines | OVA uptake by human MSCs (human WT MSCs): increase of OVA uptake
